Experimental data as given in patent publication US10188647B2, “Combination therapy using P53 activator and c-Met inhibitor” (Samsung Electronics Co., Ltd., priority 2013, dated 2019).
Each block holds one molecule with its values, some of them ahead of it.

What was measured:
[1] = test system: MKN45 stomach cancer cell line; test: MKN45 cell proliferation after sole or combined treatment (CTG); format: cell-based; settings: 72 hours
Experimental: The effects obtained by the co-administration of L3-1Y antibody that is a c-Met antibody prepared in the above reference example and Nutlin-3a that is a p53 activator, were tested in MKN45 stomach cancer cell line.
In particular, RPMI1640 media (GIBCO) containing 10% FBS were added to a 96-well plate, to which MKN45 stomach cancer cell line (ATCC) was seeded at 10,000 cells/well, and then incubated overnight at 37° C. On the next day, the sole treatment of 0.1 ug/ml of L3-1Y antibody, the sole treatment of 0.5 uM of Nutlin-3a (#N6287, sigma) which is a p53 activator, and the combined treatment of 0.1 ug/ml of L3-1Y antibody and 0.5 uM (micromole) of Nutlin-3a were administered to the incubated cells. After 72 hours post-administration, a CTG solution was added to the wells at 100 ul per well and after 30 min., and cell numbers were counted to measure a cell proliferation level.

[2] = test system: MKN45 stomach cancer cell line; test: Western blot of p53 and p21 expression/accumulation, MKN45 cells; format: cell-based; settings: 24 hours
Experimental: (§1) The activation of cell signal transduction system after the co-administration of L3-1Y antibody that is a c-Met antibody prepared in the above reference example and Nutlin-3a that is a p53 activator, was tested in MKN45 stomach cancer cell line and Caki-1 cell line.
(§2) Particularly, RPMI1640 (for MKN45 cells) containing 10% FBS, and DMEM (for Caki-1 cells) media (GIBCO) were added to a 96-well plate, to which MKN45 cell line (ATCC) and Caki-1 cell line (both of them were all obtained from ATCC) were each seeded in an amount of […], and then incubated overnight at 37° C. On the next day, the sole treatment of L3-1Y antibody at a concentration of 0.1 ug/ml (MKN45 cells) and 5 ug/ml (Caki-1 cells), […], and the combined treatment of L3-1Y antibody at 0.1 ug/ml (MKN45 cells) and 5 ug/ml ([…], respectively) were administered. After 24 hours post-administration, c-Met inhibition and p53 activation were analyzed by western blot.

[3] = test system: Caki-1 cell line; set-up: expression of p21: dose or concentration left out as unconfirmed; settings: Caki-1 cells, 24 hours, western blot
Experimental: as §1, §2

[4] = test system: Caki-1 cell line; test: Caki-1 cell proliferation (BrdU assay), agonism of L3-1Y antibody; format: cell-based; settings: sole treatment 10 ug/ml L3-1Y, serum-free, 24 hours
Experimental: The effects obtained by the co-administration of L3-1Y antibody that is a c-Met antibody prepared in the above reference example and Nutlin-3a that is a p53 activator, were tested in Caki-1 cell line.
Particularly, DMEM media (GIBCO) containing 10% FBS were added to a 96-well plate, to which Caki-1 cell line (ATCC) was seeded at 5,000 cells/well, and then incubated overnight at 37° C. On the next day, the media was replaced by serum-free media, which were then incubated for 24 hours. The sole treatment of 10 ug/ml of L3-1Y antibody, and the combined treatment of 0.1 ug/ml of L3-1Y antibody and 5 uM of Nutlin-3a were administered to the incubated cells. After 24 hours post-administration, a BrdU assay was conducted to measure the cell proliferation level.

[5] = molecular target: c-Met (Homo sapiens, UniProt P08581); test: Specificity of expressed scFv to c-Met; format: binding; settings: expressed scFv product
c-Met, sequence (P08581 25-1390): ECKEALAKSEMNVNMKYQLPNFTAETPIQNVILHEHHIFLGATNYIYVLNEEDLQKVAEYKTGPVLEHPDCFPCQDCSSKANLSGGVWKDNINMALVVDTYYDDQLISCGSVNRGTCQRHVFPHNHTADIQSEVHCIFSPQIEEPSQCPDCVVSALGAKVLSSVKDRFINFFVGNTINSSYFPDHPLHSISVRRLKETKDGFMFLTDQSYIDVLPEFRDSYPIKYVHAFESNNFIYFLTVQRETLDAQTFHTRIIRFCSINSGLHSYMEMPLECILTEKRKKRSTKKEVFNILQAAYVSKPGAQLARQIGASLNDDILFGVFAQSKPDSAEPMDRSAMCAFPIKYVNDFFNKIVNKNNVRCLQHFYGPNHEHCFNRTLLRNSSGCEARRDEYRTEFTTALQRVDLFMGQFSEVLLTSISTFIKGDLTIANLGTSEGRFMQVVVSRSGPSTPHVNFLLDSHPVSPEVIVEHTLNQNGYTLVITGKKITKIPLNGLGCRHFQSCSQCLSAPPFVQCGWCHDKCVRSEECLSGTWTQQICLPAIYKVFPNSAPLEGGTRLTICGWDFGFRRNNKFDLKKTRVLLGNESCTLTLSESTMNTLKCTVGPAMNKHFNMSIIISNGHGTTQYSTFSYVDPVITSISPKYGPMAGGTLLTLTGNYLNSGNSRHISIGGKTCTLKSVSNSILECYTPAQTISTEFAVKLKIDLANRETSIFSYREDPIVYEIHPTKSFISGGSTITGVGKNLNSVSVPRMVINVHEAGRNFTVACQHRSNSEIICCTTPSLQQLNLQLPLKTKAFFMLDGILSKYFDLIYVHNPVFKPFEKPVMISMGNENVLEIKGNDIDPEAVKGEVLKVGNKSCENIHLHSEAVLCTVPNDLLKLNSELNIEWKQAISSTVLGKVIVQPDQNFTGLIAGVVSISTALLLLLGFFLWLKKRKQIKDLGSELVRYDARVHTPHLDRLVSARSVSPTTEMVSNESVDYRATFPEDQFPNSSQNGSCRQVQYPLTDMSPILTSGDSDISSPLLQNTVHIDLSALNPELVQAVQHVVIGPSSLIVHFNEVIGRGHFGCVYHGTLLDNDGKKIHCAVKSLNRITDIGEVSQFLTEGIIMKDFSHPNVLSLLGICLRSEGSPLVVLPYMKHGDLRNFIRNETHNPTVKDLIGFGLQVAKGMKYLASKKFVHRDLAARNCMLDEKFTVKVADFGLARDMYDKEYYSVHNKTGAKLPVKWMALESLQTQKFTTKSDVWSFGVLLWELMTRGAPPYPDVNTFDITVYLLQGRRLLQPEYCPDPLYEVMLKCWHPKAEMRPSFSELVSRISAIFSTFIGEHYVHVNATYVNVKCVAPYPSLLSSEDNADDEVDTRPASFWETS

[6] = sole treatment 0.5 uM Nutlin-3a
[7] = sole treatment 0.5 mM Nutlin-3a

Molecule: COc1ccc(C2=N[C@@H](c3ccc(Cl)cc3)[C@@H](c3ccc(Cl)cc3)N2C(=O)N2CCNC(=O)C2)c(OC(C)C)c1 [Nutlin-3a]
suppressive effects of cell proliferation [1, 6]: did not show suppressive effects of cell proliferation | expression of p21 [2, 6]: accumulated | p53 accumulation [2, 7]: accumulated | p53 accumulation [3, 7]: accumulated | expression of p21 ([3]; sole treatment): accumulated

B1: L3-1Y: anti c-Met antibody: huAbF46-H4-A1 heavy chain variable region, human IgG2 hinge and constant region, kappa light chain (antibody)
heavy: EVQLVESGGGLVQPGGSLRLSCAASGFTFTDYYMSWVRQAPGKGLEWLGFIRNKANGYTTEYSASVKGRFTISRDNSKNTLYLQMNSLRAEDTAVYYCARDNWFAYWGQGTLVTVSSASTKGPSVFPLAPCSRSTSESTAALGCLVKDYFPEPVTVSWNSGALTSGVHTFPAVLQSSGLYSLSSVVTVPSSNFGTQTYTCNVDHKPSNTKVDKTVERKCCVECPPCPAPPVAGPSVFLFPPKPKDTLMISRTPEVTCVVVDVSHEDPEVQFNWYVDGVEVHNAKTKPREEQFNSTFRVVSVLTVVHQDWLNGKEYKCKVSNKGLPAPIEKTISKTKGQPREPQVYTLPPSREEMTKNQVSLTCLVKGFYPSDIAVEWESNGQPENNYKTTPPMLDSDGSFFLYSKLTVDKSRWQQGNVFSCSVMHEALHNHYTQKSLSLSPGK
light: DIQMTQSPSSLSASVGDRVTITCKSSQSLLASGNQNNYLAWYQQKPGKAPKMLIIWASTRVSGVPSRFSGSGSGTDFTLTISSLQPEDFATYYCQQSYSRPYTFGQGTKVEIKRTVAAPSVFIFPPSDEQLKSGTASVVCLLNNFYPREAKVQWKVDNALQSGNSQESVTEQDSKDSTYSLSSTLTLSKADYEKHKVYACEVTHQGLSSPVTKSFNRGEC
promoted cell proliferation as compared to the media-only control [4]: ≥ 20% | suppressive effects of cell proliferation ([1]; sole treatment 0.1 ug/ml L3-1Y): about 10%

specificity to c-Met [5]: exhibit specificity to c-Met
B2: scFv of huAbF46: scFv with structure VH-linker-VL from heavy and light chain variable regions of huAbF46 antibody (protein)
scFv: EVQLVESGGGLVQPGGSLRLSCAASGFTFTDYYMSWVRQAPGKGLEWLGFIRNKANGYTTEYSASVKGRFTISRDNSKNTLYLQMNSLRAEDTAVYYCARDNWFAYWGQGTLVTVSSGLGGLGGGGSGGGGSGGSSGVGSDIQMTQSPSSLSASVGDRVTITCKSSQSLLASGNQNNYLAWHQQKPGKAPKMLIIWASTRVSGVPSRFSGSGSGTDFTLTISSLQPEDFATYYCQQSYSAPLTFGQGTKVEIKR
